{
  "source": "patent US10434199B2",
  "about": "“Picolinate cross-bridged cyclams, chelates with metallic cations and use thereof” (UNIVERSITÉ DE BRETAGNE OCCIDENTALE, priority 2013, dated 2019)",
  "key": {"[1]": {"test": "Potentiometric titrations: protonation constants of the ligands", "assay_type": "physicochemical", "details": "25.0° C., 0.10M KNO3", "method": "Equipment and work conditions. The potentiometric setup has been described in Roger, M. et al. Inorg. Chem. 2013, 52, 5246-5259. The titrant was a KOH solution prepared at ca. 0.1 M from a commercial ampoule of analytical grade, and its accurate concentration was obtained by application of the Gran's method upon titration of a standard HNO3 solution (Rossotti, F. J. and Rossotti, H. J. J. Chem. Educ. 1965, 42, 375-378). Ligand solutions were prepared at about 2.0×10^−3 M, and the Cu^2+ and Zn^2+ solutions at ca. 0.05 M from analytical grade nitrate salts and standardized by complexometric titrations with H4edta (ethylenediaminetetraacetic acid). Sample solutions for titration contained approximately 0.04 mmol of ligand in a volume of 30 mL where the ionic strength was kept at 0.10 M using KNO3 as background electrolyte. Metal cations were added at 0.9 equiv. of the ligand amount in complexation titrations. Batch titrations were prepared in a similar way but with each titration point corresponding to 1/10 of the amount of a conventional titration sample. Batch titration points were incubated in tightly closed vials at 25° C. until potential measurements attained complete stability, which happened within a week.\nMeasurements. All measurements were carried out at 25.0±0.1° C. under inert atmosphere. The electromotive force of the sample solutions was measured after calibration of the electrodes by titration of a standard HNO3 solution at 2.0×10^−3 M in the work conditions. The [H^+] of the solutions was determined by measurement of the electromotive force of the cell, E=E^o′+Q log [H^+]+Ej. The term pH is defined as −log [H^+]. E^o′ and Q were determined from the acid region of the calibration curves. Deviations from the Nernst law at very low pH (pH<2.5) were corrected with the VLpH software (Calibration software from the maker of Hyperquad available for free at http://www.hyperquad.co.uk/), which performs a [H^+] correction based on a very low pH calibration procedure. The liquid-junction potential, Ej, was otherwise found to be negligible for pH >2.5 under the experimental conditions used. […] Each titration consisted of 80-100 equilibrium points in the range of pH 2.5-11.5 (or 1.5-11.5 for Cu^2+ complexations), and at least two replicate titrations were performed for each particular system.\nCalculations. […] The errors quoted are the standard deviations calculated by the fitting program from all the experimental data for each system.\nThe protonation constants of Hcb-te1pa were studied in aqueous solution at 25.0° C. The compound has five basic centers consisting of the four amines and the carboxylate function, from which only two could be accurately determined by potentiometric titrations (Table 1). […]"}, "[2]": {"test": "Potentiometric titrations: stability constants and pM of Cu^2+ complexes", "assay_type": "physicochemical", "method": "Equipment and work conditions. The potentiometric setup has been described in Roger, M. et al. Inorg. […] Ligand solutions were prepared at about 2.0×10^−3 M, and the Cu^2+ and Zn^2+ solutions at ca. 0.05 M from analytical grade nitrate salts and standardized by complexometric titrations with H4edta (ethylenediaminetetraacetic acid). Sample solutions for titration contained approximately 0.04 mmol of ligand in a volume of 30 mL where the ionic strength was kept at 0.10 M using KNO3 as background electrolyte. Metal cations were added at 0.9 equiv. of the ligand amount in complexation titrations. Batch titrations were prepared in a similar way but with each titration point corresponding to 1/10 of the amount of a conventional titration sample.\nMeasurements. All measurements were carried out at 25.0±0.1° C. under inert atmosphere. The electromotive force of the sample solutions was measured after calibration of the electrodes by titration of a standard HNO3 solution at 2.0×10^−3 M in the work conditions. The [H^+] of the solutions was determined by measurement of the electromotive force of the cell, E=E^o′+Q log [H^+]+Ej. The term pH is defined as −log [H^+]. E^o′ and Q were determined from the acid region of the calibration curves. Deviations from the Nernst law at very low pH (pH<2.5) were corrected with the VLpH software (Calibration software from the maker of Hyperquad available for free at http://www.hyperquad.co.uk/), which performs a [H^+] correction based on a very low pH calibration procedure.\nCalculations. The potentiometric data were refined with the Hyperquad software, and speciation diagrams were plotted using the HySS software. The overall equilibrium constants βi^H and βMmHhL1 are defined by βMmHhL1=[MmHhLl]/[M]^m[H]^h[L]^l (βi^H=[HhLl]/[H]^h[L]^l and βML-1L=βML(OH)×Kw). Differences in log units between the values of protonated (or hydrolysed) and non-protonated constants provide the stepwise (log K) reaction constants (being KMmHhL1=[MmHhLl]/[MmHh-1Ll][H]). The errors quoted are the standard deviations calculated by the fitting program from all the experimental data for each system.\nThe stability constants of the complexes formed by Hcb-te1pa with Cu^2+ and Zn^2+ were determined by potentiometric titrations in aqueous solution at 25.0° C. in 0.10 M KNO3 ionic strength (Table 2).\nDuring titrations, each experimental point included a supplementary equilibration time in order to yield fully stabilized measurements. […] For this reason, batch titrations were prepared in the range of pH=4-6 and were left to equilibrate until full stabilization, while conventional titrations were used for the remaining pH regions.\nFor a correct comparison of the thermodynamic stability of the complexes of Hcb-te1pa with the corresponding values of other ligands from the literature, the pM values that take into account the variable basicity properties of different ligands were also calculated (Table 3). […] The thermodynamic stability is not the only important criterion to determine the efficiency of metal complexation because, depending on the application, other factors such as kinetic inertness or in vivo stability can be more important."}},
  "data": [
    {"smiles": "O=C(O)c1cccc(CN2CCCN3CCNCCCN(CC3)CC2)n1", "note": "[Hcb-te1pa, 6-(1,4,8,11-tetraazabicyclo[6.6.2]hexadecan-4-ylmethyl)picolinic acid]", "values": [
      {"measurement": "log βi^H, L + 2 H^+ ⇌ H2L", "setting": "[1]", "result": "25.13(5) log units"},
      {"measurement": "log βi^H, L + 3 H^+ ⇌ H3L", "setting": "[1]", "result": "27.56(5) log units"},
      {"measurement": "log βi^H, L + 4 H^+ ⇌ H4L", "setting": "[1]", "result": "<29.56", "unit": "log units"},
      {"measurement": "log βi^H, L + H^+ ⇌ HL", "setting": "[1]", "result": ">15", "unit": "log units"},
      {"measurement": "log KMLHh, Cu^2+ + L ⇌ CuL", "setting": "[2]; 25.0° C., I = 0.10M KNO3", "result": 26.00, "unit": "log units"},
      {"measurement": "log βMLHh, Cu^2+ + L ⇌ CuL", "setting": "[2]; 25.0° C., I = 0.10M KNO3", "result": "26.00(5) log units"},
      {"measurement": "b) thermodynamic stability: log K[CuL]", "setting": "[2]; overview table", "result": 26.00},
      {"measurement": "b) thermodynamic stability: pCu", "setting": "[2]; overview table, calculated pM", "result": 15.67},
      {"measurement": "Calculated pM, Cu^2+", "setting": "[2]; pH = 7.4, 100% excess of ligand, [M^2+]tot = 1 × 10^−5 M", "result": 15.67}
    ]}
  ]
}
